Columns and labels:
[1] = Compound was evaluated for effective concentration […] for Dopamine receptor D2 mitogenesis. (95% confidence intervals)
[2] = Binding affinity to rat Dopamine receptor D3 expressed in CHO cells was determined using [125 I] iodosulpride as radioligand

## Nc1cccc(C#CCCN2CC=C(c3ccccc3)CC2)c1 [3-[4-(4-Phenyl-3,6-dihydro-2H-pyridin-1-yl)-but-1-ynyl]-phenylamine]
[1]
  EC50: 9800 pM
[2]
  Ki: 360 pM

## Nc1ccc(C#CCCN2CC=C(c3ccccc3)CC2)cc1 [4-[4-(4-Phenyl-3,6-dihydro-2H-pyridin-1-yl)-but-1-ynyl]-phenylamine]
[1]
  EC50: 500 pM
